Data as given in patent US8389011B2, “Pharmaceutical compositions of cholesteryl ester transfer protein inhibitors” (Bend Research, Inc., priority 2000, dated 2013).
≈ marks a conversion by molar mass, not a printed value. Like-named read-outs stand apart in the source and are kept apart here. One block for each compound: values may come before it.

Experiments:
[1] = In vitro dissolution test, microcentrifuge method, in model fasted duodenal solution (MFDS); format: physicochemical
Experimental: The compositions comprising the CETP inhibitor and concentration-enhancing polymer provide enhanced concentration of the dissolved CETP inhibitor in in vitro dissolution tests. It has been determined that enhanced drug concentration in in vitro dissolution tests in Model Fasted Duodenal (MFD) solution or Phosphate Buffered Saline (PBS) is a good indicator of in vivo performance and bioavailability. An appropriate PBS solution is an aqueous solution comprising 20 mM sodium phosphate (Na2HPO4), 47 mM potassium phosphate (KH2PO4), 87 mM NaCl, and 0.2 mM KCl, adjusted to pH 6.5 with NaOH. An appropriate MFD solution is the same PBS solution wherein additionally is present 7.3 mM sodium taurocholic acid and 1.4 mM of 1-palmitoyl-2-oleyl-sn-glycero-3-phosphocholine. In particular, a composition of the present invention can be dissolution-tested by adding it to MFD or PBS solution and agitating to promote dissolution.
A typical in vitro test to evaluate enhanced drug concentration in aqueous solution can be conducted by (1) adding with agitation a sufficient quantity of control composition, typically the CETP inhibitor alone, to the in vitro test medium, typically MFD or PBS solution, to achieve equilibrium concentration of the CETP inhibitor; (2) adding with agitation a sufficient quantity of test composition (e.g., the CETP inhibitor and polymer) in an equivalent test medium, such that if all the CETP inhibitor dissolved, the theoretical concentration of CETP inhibitor would exceed the equilibrium concentration of the CETP inhibitor by a factor of at least 10, and preferably a factor of at least 100; and (3) comparing the measured MDC and/or aqueous concentration versus time AUC of the test composition in the test medium with the equilibrium concentration, and/or the aqueous concentration versus time AUC of the control composition. In conducting such a dissolution test, the amount of test composition or control composition used is an amount such that if all of the CETP inhibitor dissolved the CETP inhibitor concentration would be at least 10-fold and preferably at least 100-fold that of the equilibrium concentration. Indeed, for some extremely insoluble CETP inhibitors, in order to identify the MDC achieved it may be necessary to use an amount of test composition such that if all of the CETP inhibitor dissolved, the CETP inhibitor concentration would be 10,000-fold or even more, that of the equilibrium concentration of the CETP inhibitor.
The concentration of dissolved CETP inhibitor is typically measured as a function of time by sampling the test medium and plotting CETP inhibitor concentration in the test medium vs. time so that the MDC can be ascertained. The MDC is taken to be the maximum value of dissolved CETP inhibitor measured over the duration of the test.
To avoid large CETP inhibitor particulates which would give an erroneous determination, the test solution is either filtered or centrifuged. “Dissolved CETP inhibitor” is typically taken as that material that either passes a 0.45 μm syringe filter or, alternatively, the material that remains in the supernatant following centrifugation. Filtration can be conducted using a 13 mm, 0.45 μm polyvinylidine difluoride syringe filter sold by Scientific Resources under the trademark TITAN®. Centrifugation is typically carried out in a polypropylene microcentrifuge tube by centrifuging at 13,000 G for 60 seconds. Other similar filtration or centrifugation methods can be employed and useful results obtained. For example, using other types of microfilters may yield values somewhat higher or lower (±10-40%) than that obtained with the filter specified above but will still allow identification of preferred dispersions. […]

[2] = Solubility in water; format: physicochemical
Excerpt: The invention is useful for CETP inhibitors which have sufficiently low aqueous solubility, low bioavailability or slow rate of absorption such that it is desirable to increase their concentration in an aqueous environment of use. Therefore, anytime one finds it desirable to raise the aqueous concentration of the CETP inhibitor in a use environment, the invention will find utility.

[3] = Table 9, Drug 2, receptor solution MFDS, TCmax 400 μg/mL (Examples 14-16: 100 μg/mL)
[4] = aqueous solubility determined at about 22° C. unless otherwise specified, read-out: solubility in water

Structure (SMILES): CCOC(=O)N1c2ccc(C(F)(F)F)cc2[C@@H](N(Cc2cc(C(F)(F)F)cc(C(F)(F)F)c2)C(=O)OC)C[C@H]1CC [Control 3, [2R,4S]4-[(3,5-bis-trifluoromethyl-benzyl)-methoxycarbonyl-amino]-2-ethyl-6-trifluoromethyl-3,4-dihydro-2H-quinoline-1-carboxylic acid ethyl ester]
- Concentration ([1]; Table 8, Drug 2, receptor MFDS, 0 min, TCmax 400 μg/ml (Examples 14-16: 100 μg/ml)): 0 ng/mL
- Concentration ([1]; Table 8, Drug 2, receptor MFDS, 4 min, TCmax 400 μg/ml): <1000 ng/mL
- Concentration ([1]; Table 8, Drug 2, receptor MFDS, 10 min, TCmax 400 μg/ml (Examples 14-16: 100 μg/ml)): <1000 ng/mL
- Concentration ([1]; Table 8, Drug 2, receptor MFDS, 20 min, TCmax 400 μg/ml (Examples 14-16: 100 μg/ml)): <1000 ng/mL
- Concentration ([1]; Table 8, Drug 2, receptor MFDS, 40 min, TCmax 400 μg/ml (Examples 14-16: 100 μg/ml)): <1000 ng/mL
- Concentration ([1]; Table 8, Drug 2, receptor MFDS, 90 min, TCmax 400 μg/ml (Examples 14-16: 100 μg/ml)): <1000 ng/mL
- AUC ([1]; Table 8, Drug 2, receptor MFDS, to 0 min, TCmax 400 μg/ml (Examples 14-16: 100 μg/ml)): 0 min-μg/ml
- AUC ([1]; Table 8, Drug 2, receptor MFDS, to 4 min, TCmax 400 μg/ml): <4 min-μg/ml
- AUC ([1]; Table 8, Drug 2, receptor MFDS, to 10 min, TCmax 400 μg/ml (Examples 14-16: 100 μg/ml)): <10 min-μg/ml
- AUC ([1]; Table 8, Drug 2, receptor MFDS, to 20 min, TCmax 400 μg/ml (Examples 14-16: 100 μg/ml)): <20 min-μg/ml
- AUC ([1]; Table 8, Drug 2, receptor MFDS, to 40 min, TCmax 400 μg/ml (Examples 14-16: 100 μg/ml)): <40 min-μg/ml
- AUC ([1]; Table 8, Drug 2, receptor MFDS, to 90 min, TCmax 400 μg/ml (Examples 14-16: 100 μg/ml)): <90 min-μg/ml
- AUC90 [1, 3]: <90 min-μg/mL
- Cmax, 90 [1, 3]: <1000 ng/mL
- AUC90 ([1]; Table 22: Drug 2, MFD solution): <90 min-μg/mL
- Cmax, 90 ([1]; Table 22: Drug 2, MFD solution): <1000 ng/mL

Structure (SMILES): CCOC(=O)N1c2ccc(C(F)(F)F)cc2[C@@H](N(Cc2cc(C(F)(F)F)cc(C(F)(F)F)c2)C(=O)OC)C[C@H]1CC [Drug 2, [2R,4S]4-[(3,5-bis-trifluoromethyl-benzyl)-methoxycarbonyl-amino]-2-ethyl-6-trifluoromethyl-3,4-dihydro-2H-quinoline-1-carboxylic acid ethyl ester]
- solubility ([2]; 22 °C, crystalline drug, read-out: solubility of crystalline Drug 2 (accurate measurements)): ~0.01 µg/mL (≈ 0.0167 µM)
- solubility [2, 4]: < 1 µg/mL

Structure (SMILES): CCOC(=O)N1c2cc(OC)c(OC)cc2[C@@H](N(Cc2cc(C(F)(F)F)cc(C(F)(F)F)c2)C(=O)OC)C[C@H]1C [Drug 4, [2R,4S]4-[(3,5-bis-trifluoromethyl-benzyl)-methoxycarbonyl-amino]-6,7-dimethoxy-2-methyl-3,4-dihydro-2H-quinoline-1-carboxylic acid ethyl ester]
- solubility [2, 4]: < 1 µg/mL

Structure (SMILES): COC(=O)N(Cc1cc(C(F)(F)F)cc(C(F)(F)F)c1)[C@@H]1C[C@H](C2CC2)N(C(=O)OC(C)C)c2ccc(C(F)(F)F)cc21 [Drug 1, [2R,4R]4-[(3,5-bis-trifluoromethyl-benzyl)-methoxycarbonyl-amino]-2-cyclopropyl-6-trifluoromethyl-3,4-dihydro-2H-quinoline-1-carboxylic acid isopropyl ester]
- solubility [2, 4]: < 1 µg/mL

Structure (SMILES): CCCOC(=O)N1c2ccc(C(F)(F)F)cc2[C@@H](N(Cc2cc(C(F)(F)F)cc(C(F)(F)F)c2)C(=O)OC)C[C@H]1CC [Drug 3, [2R,4S]4-[(3,5-bis-trifluoromethyl-benzyl)-methoxycarbonyl-amino]-2-ethyl-6-trifluoromethyl-3,4-dihydro-2H-quinoline-1-carboxylic acid propyl ester]
- solubility [2, 4]: < 0.1 µg/mL

Structure (SMILES): COC(=O)N(Cc1cc(C(F)(F)F)cc(C(F)(F)F)c1)[C@@H]1C[C@H](C2CC2)N(C(=O)OC(C)C)c2ccc(C(F)(F)F)cc21 [Control 1, [2R,4R]4-[(3,5-bis-trifluoromethyl-benzyl)-methoxycarbonyl-amino]-2-cyclopropyl-6-trifluoromethyl-3,4-dihydro-2H-quinoline-1-carboxylic acid isopropyl ester]
- Concentration ([1]; Table 2, Drug 1, MFDS, 37° C., 0 min, TCmax 100 μg/mL (Example 4: 500 μg/mL)): 0 ng/mL
- Concentration ([1]; Table 2, Drug 1, MFDS, 37° C., 4 min, TCmax 100 μg/mL): <100 ng/mL
- Concentration ([1]; Table 2, Drug 1, MFDS, 37° C., 10 min, TCmax 100 μg/mL (Example 4: 500 μg/mL)): 300 ng/mL
- Concentration ([1]; Table 2, Drug 1, MFDS, 37° C., 20 min, TCmax 100 μg/mL): 300 ng/mL
- Concentration ([1]; Table 2, Drug 1, MFDS, 37° C., 40 min, TCmax 100 μg/mL): 900 ng/mL
- Concentration ([1]; Table 2, Drug 1, MFDS, 37° C., 90 min, TCmax 100 μg/mL (Example 4: 500 μg/mL)): 800 ng/mL
- AUC ([1]; Table 2, Drug 1, MFDS, 37° C., to 0 min, TCmax 100 μg/mL (Example 4: 500 μg/mL)): 0 min-μg/mL
- AUC ([1]; Table 2, Drug 1, MFDS, 37° C., to 4 min, TCmax 100 μg/mL): <0.1 min-μg/mL
- AUC ([1]; Table 2, Drug 1, MFDS, 37° C., to 10 min, TCmax 100 μg/mL (Example 4: 500 μg/mL)): 1 min-μg/mL
- AUC ([1]; Table 2, Drug 1, MFDS, 37° C., to 20 min, TCmax 100 μg/mL): 4 min-μg/mL
- AUC ([1]; Table 2, Drug 1, MFDS, 37° C., to 40 min, TCmax 100 μg/mL): 16 min-μg/mL
- AUC ([1]; Table 2, Drug 1, MFDS, 37° C., to 90 min, TCmax 100 μg/mL (Example 4: 500 μg/mL)): 57 min-μg/mL
- AUC90 ([1]; Table 3, area under the aqueous concentration versus time curve during the 90-minute test, Drug 1, MFDS, TCmax 100 μg/mL (Example 4: 500 μg/mL)): 57 min-μg/mL
- Cmax, 90 ([1]; Table 3, maximum concentration of Drug 1 in solution during the 90-minute test, MFDS, TCmax 100 μg/mL (Example 4: 500 μg/mL)): 900 ng/mL

Second part, the compound after the results:

- solubility [2, 4]: < 1 µg/mL
Structure (SMILES): CC(C)c1cc2c(c(-c3ccc(F)cc3)c1[C@@H](F)c1ccc(C(F)(F)F)cc1)[C@@H](O)CC1(CCC1)C2 [Drug 10, (4′S)-5′-(4-fluorophenyl)-6′-[(S)-fluoro[4-(trifluoromethyl)phenyl]methyl]-3′,4′-dihydro-7′-(1-methylethyl)-spiro[cyclobutane-1,2′(1′H)-naphthalen]-4′-ol]

- solubility [2, 4]: < 1 µg/mL
Structure (SMILES): CC[C@@H]1C[C@H](N(Cc2cc(C(F)(F)F)cc(C(F)(F)F)c2)C(C)=O)c2cc(C(F)(F)F)ccc2N1C(=O)OC(C)C [Drug 7, [2R,4S]4-[acetyl-(3,5-bis-trifluoromethyl-benzyl)-amino]-2-ethyl-6-trifluoromethyl-3,4-dihydro-2H-quinoline-1-carboxylic acid isopropyl ester]

- solubility [2, 4]: < 1 µg/mL
Structure (SMILES): CC[C@@H]1C[C@H](N(Cc2cc(C(F)(F)F)cc(C(F)(F)F)c2)C(=O)OC)c2cc(C(F)(F)F)ccc2N1C(=O)OC(C)C [Drug 12, [2R,4S]4-[(3,5-bis-trifluoromethyl-benzyl)-methoxycarbonyl-amino]-2-ethyl-6-trifluoromethyl-3,4-dihydro-2H-quinoline-1-carboxylic acid isopropyl ester]

- solubility [2, 4]: < 1 µg/mL
Structure (SMILES): CCOC(=O)N1c2cc(CC)c(CC)cc2[C@@H](N(Cc2cc(C(F)(F)F)cc(C(F)(F)F)c2)C(=O)OC)C[C@H]1C [Drug 5, [2R,4S]4-[(3,5-bis-trifluoromethyl-benzyl)-methoxycarbonyl-amino]-6,7-diethyl-2-methyl-3,4-dihydro-2H-quinoline-1-carboxylic acid ethyl ester]

- solubility [2, 4]: < 1 µg/mL
Structure (SMILES): COC(=O)N(Cc1cc(C(F)(F)F)cc(C(F)(F)F)c1)[C@H]1C[C@@H](C2CC2)N(C(=O)OC(C)C)c2ccc(C(F)(F)F)cc21 [Drug 8, [2S,4S]4-[(3,5-bis-trifluoromethyl-benzyl)-methoxycarbonyl-amino]-2-cyclopropyl-6-trifluoromethyl-3,4-dihydro-2H-quinoline-1-carboxylic acid isopropyl ester]
